From patent publication US20110178104A1, “Anti-Heparin Compounds” (POLYMEDIX INC., priority 2010, published 2011)
Converted amounts (≈) assume the structure as drawn. “And” between values parts separate entries of the source, which are not always exact repeats. Identical values can stand only once.

Assays:
UFH [1] = experiment: FXa amidolytic assay (Example 10), UFH; conditions: read-out: Heparin FXa uM EC50; UFH 0.03 units/mL; human antithrombin, bovine Factor Xa
[2] = Cytotoxicity colorimetric assay, HepG2; assay type: cell-based, human; conditions: human, HepG2 cells, one hour in serum-free media
Summary of the method: (§1)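 HepG2 cells (3×10^4/well, MEM + 10% FBS) and NIH/3T3 cells (2×10^4/well, DMEM + 10% BCS) were exposed to compound for 1 h in serum-free medium. Viability read by tetrazolium-to-formazan bioreduction after return to serum medium; EC50 from a four-parameter logistic fit.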

UFH [3] = experiment: In vivo neutralization of unfractionated heparin in the rat; conditions: UFH 100 U/kg IV, 1 mg/kg dose IV
Protocol: The male Sprague-Dawley rats used in this study were obtained from Charles River Laboratories, Raleigh. They were nine-weeks-old at the start of the study and their weights ranged from 279-334 g. Rats were pre-treated with UFH administered by IV injection in a tail vein at 100 U/kg in a dose volume of 1 mL/kg. The rats were then treated with a single IV injection of saline, protamine or the appropriate test compound at doses of 0.25, 0.5 and 1.0 mg/kg. All treatments were dosed in a volume of 1 mL/kg. Blood was collected via the orbital sinus from three rats per group at the following time points after treatment: predose, 1, 3, 10, 30 and 60. At each time point, 1 mL of blood was collected from each animal into a single tube. The blood was analyzed using an AMEX Destiny Plus Coagulation Analyzer for activated partial thromboplastintime (APTT) and anti-Factor Xa.

Unfractionated heparin = experiment: aPTT clotting assay, UFH 0.4 U/mL in plasma (Example 10); assay type: biochemical; conditions: unfractionated heparin 0.4 U/mL in plasma; aPTT clotting
Protocol: (§2) aPTT clotting Assay: Unfractionated heparin was mixed with plasma at a final concentration of 0.4 U/mL (or concentration which increases aPTT time to between 120 and 300 seconds). […] The ACL Elite Hemostasis analyzer (Beckman Coulter™) was used to add aPTT reagent (HemosIL SynthASil) to supplemented plasma. Clotting was initiated by addition of CaCl2 and time to clot was recorded.

[4] = Cytotoxicity colorimetric assay, NIH/3T3; assay type: cell-based, mouse; conditions: mouse, NIH/3T3 cells, one hour in serum-free media
Summary of the method: as §1

enoxaparin [5] = experiment: FXa amidolytic assay (Example 10), enoxaparin; conditions: read-out: Enox FXa EC50; enoxaparin 0.1 ug/ml; human antithrombin, bovine Factor Xa
[6] = tested on: isolated human erythrocytes; experiment: cells; assay type: cell-based; conditions: Homo sapiens, Erythrocyte, 1 h, human RBC, 1 hour at 37° C.; read-out: Hemolysis EC50
Summary of the method: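 Test agent was serially diluted two-fold over 0.48–1000 µg/ml and incubated for 1 h at 37 °C with shaking, using erythrocytes from pooled human blood diluted in Tris-buffered saline pH 7.4 (0.22% stock). Hemolysis was measured as supernatant absorbance at 405 nm. A four-parameter logistic equation gave EC50, and melittin served as the positive control.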

fondaparinux = experiment: FXa amidolytic assay (Example 10), fondaparinux; conditions: read-out: Fondap FXa EC50; fondaparinux 0.02 μg/mL; human antithrombin, bovine Factor Xa
tinzaparin = experiment: FXa amidolytic assay (Example 10), tinzaparin; conditions: read-out: Tinzap FXa EC50; tinzaparin 0.1 ug/ml; human antithrombin, bovine Factor Xa
fondaparinux (FONDAPX) = experiment: FXa chromogenic assay (absence of plasma), fondaparinux; conditions: fondaparinux 0.02 μg/mL, absence of plasma
enoxaparin [7] = experiment: FXa amidolytic assay in human plasma, enoxaparin; assay type: biochemical; conditions: enoxaparin 10 μg/mL, at a concentration of about 50 μg/mL
enoxaparin (ENOX) = experiment: FXa chromogenic assay (absence of plasma), enoxaparin; conditions: enoxaparin 0.1 μg/mL, absence of plasma
UFH [8] = experiment: FXa amidolytic assay in human plasma, UFH; assay type: biochemical; conditions: UFH 4 μg/mL
Protocol: (§3) Eight parts of pooled human plasma was supplemented with 1 part LMWH or UFH at final concentrations of 4 μg/mL, or fondarinux at a final concentration of 1.25 μg/mL. One 1 μL sample of test agent was then added to 9 μL of supplemented plasma (test agent concentration ranges=0.156 to 20 μg/mL) and mixed. The supplemented plasmas were analyzed immediately in clotting and amidolytic assays as described below. All samples were performed in duplicate.
FXa Amidolytic Assay: Bovine factor Xa was added to supplemented plasma and incubated for 5 minutes at 37° C. Spectrozyme FXa substrate was added and the optical density change at 405 nm was measured for 30 seconds. % factor Xa inhibition is calculated using the following equation:
(§4) % Inhibition=[(ODbaseline−ODsample)/ODbaseline]×100.

[9] = tested on: unfractionated heparin (UFH); experiment: aPTT clotting assay, UFH 0.2 U/mL in plasma (Example 7); assay type: biochemical; conditions: UFH 0.2 U/mL in plasma
Protocol: as §2, with “Assay.” for “Assay:”, “0.2 U/mL.” for “0.4 U/mL (or concentration which increases aPTT time to between 120 and 300 seconds).”

UFH [10] = experiment: FIIa amidolytic assay in human plasma, UFH; assay type: biochemical; conditions: UFH 4 μg/mL
Protocol: as §3
FIIa Amidolytic Assay. Human thrombin was added to supplemented plasma and incubated for 1 minute at 37° C. Spectrozyme TH substrate was added and the optical density change at 405 nm was measured for 30 seconds in a SpectraMax 250 instrument. % factor IIa inhibition was calculated using the following equation:
as §4

[11] = at a concentration of greater than about 25 μg/mL

| EC50 (UFH [1]) | EC50 (Unfractionated heparin) | EC50 (enoxaparin [5]) | EC50 (fondaparinux) | EC50 (tinzaparin) | FONDAPX (FXa) EC50 (fondaparinux (FONDAPX)) | ENOX (FXa) EC50 (enoxaparin (ENOX)) | UFH (aPTT) EC50 [9] | Compound | EC50 at 1 h [2] | neutralization of UFH activity in aPTT assays (UFH [3]) | EC50 at 1 h [4] | EC50 [6] | percent of the anticoagulant effect of enoxaparin inhibited (FXa amidolytic) (enoxaparin [7]) | percent of the anticoagulant effect of UFH inhibited (FXa amidolytic) (UFH [8]; [11]) | concentration antagonizing about 50% of the anticoagulant effect of UFH (FXa amidolytic) (UFH [8]; human plasma) | percent of the anticoagulant effect of UFH inhibited (FIIa amidolytic) (UFH [10]; [11]) | concentration antagonizing about 50% of the anticoagulant effect of UFH (FIIa amidolytic) (UFH [10]; human plasma) |
| --- | --- | --- | --- | --- | --- | --- | --- | --- | --- | --- | --- | --- | --- | --- | --- | --- | --- |
| 0.151 µM | 1700 nM and 1410 nM | 185 nM and 201 nM | 1560 nM and 1390 nM | 148 nM and 120 nM | – | – | – | COc1cc(OC)c(C(=O)N[C@H]2CC[C@H](NC(=O)c3ccc(OCCCCCN)cc3OCCCCCN)CC2)cc1C(=O)N[C@H]1CC[C@H](NC(=O)c2ccc(OCCCCCN)cc2OCCCCCN)CC1 [Compound 335] | 700 µg/mL (≈ 679 µM) | complete neutralization | 120 µg/mL (≈ 116 µM) | > 1000 µg/mL | – | – | – | – | – |
| – | – | – | – | – | 6.19 µg/mL | 0.29 µg/mL | 2.26 µg/mL | COc1ccc(NC(=O)[C@H](CCCCN)NC(=O)c2cc(NC(=O)[C@H](CCCCN)NC(=O)c3cc(NC(=O)[C@H](CCCCN)NC(=O)c4cc(NC(=O)[C@@H](N)CCCCN)ccc4OC)ccc3OC)ccc2OC)cc1C(N)=O [Compound 8] | – | – | – | – | about 60% | 90%-100% | 12 to 18 µg/mL | 98%-100% | 14 to 20 µg/mL |
